# “And” between values parts separate entries of the source, which are not always exact repeats. Equal entries are not always repeated.
# Tests used:
# Test in all cases: AHAS product feedback inhibition assay (leucine, isoleucine, valine)
# Type in all cases: biochemical, Camelina sativa
# [1] = system: AHAS, enzyme extract of MIDAS™; details: for Absorbance at 530 nm (AHAS product feedback inhibition assay, raw data), Avg: average of replicates per experiment; for Absorbance at 530 nm (AHAS product feedback inhibition assay, raw data): individual replicates, experiments 1-3
# Experimental: (§1) Briefly, for each of the three comparators, leaf and stem (petiole) material was bulk-harvested at the 3-4 leaf stage from at least 30 plantlets, snap-frozen in liquid nitrogen, and stored at −80° C. The AHAS in vitro assay was conducted according to the method of Singh et al (1988), with modifications by Yu (2010) and Rustgi (2014). For each comparator, 4 grams of frozen material were ground to a fine powder with a mortar and pestle in liquid nitrogen and homogenized in 1 volume of cold extraction buffer containing 100 mM potassium phosphate buffer (pH7.5), 10 mM sodium pyruvate, 5 mM MgCl2, 100 μM flavin adenine dinucleotide (FAD), and 10% glycerol. Four 2-mL microcentrifuge tubes were used for each comparator. The homogenate was centrifuged at 13,000 rpm for 10 min at 4° C., supernatant collected and re-centrifuged for an additional 10 minutes under the same conditions. For each tube, 1 mL of supernatant was pipetted into a new 2-mL microcentrifuge tube, and protein was precipitated by the addition of 1 mL of saturated ammonium sulfate. The solution was mixed well by vortex and allowed to stand on ice for 20 minutes, then centrifuged at 13,000 rpm at 4° C. The protein pellet was resuspended in 300 μL of reaction buffer containing 50 mM potassium phosphate buffer (pH7.5), 100 mM sodium pyruvate, 10 mM MgCl2, 1 mM EDTA, 10 μM FAD, 100 mM NaCl, and 1 mM thiamine pyrophosphate. Tubes of each comparator were combined, mixed well, kept on ice and immediately used in the AHAS activity and feedback inhibition assays.
# (§2) Total protein concentration of the crude extract was determined by the Bradford method (Bradford, 1976). All assays were conducted using 300 μg of total protein each.
# (§3) The feedback inhibition assay was performed by combining equal amounts of extract and amino acids leucine, isoleucine, or valine, respectively, in concentrations of 0.1 mM, 1 mM, 10 mM and 100 mM, according to Yu et al. (2010). The reaction mixture contained 50 μL enzyme extract and 50 μL 100 mM sodium pyruvate and inhibitor amino acid. The reaction was incubated at 37° C. for 60 minutes, then stopped and acetolactate converted to acetoin with the addition of 20 μL of 6 N H2SO4 and incubated at 60° C. for 15 minutes. A separate background “blank” was included for each sample group by adding 20 μL of 6 N H2SO4 prior to the addition of the enzyme extracts. Then, 95 μL of 0.55% w/v creatine solution and 95 μL of α-naphthol solution (5.5% w/v in 5 N NaOH) were added and the mixture incubated at 60° C. for a further 15 minutes. After cooling to room temperature for 15 minutes, enzyme activity was determined colorimetrically by reading the absorbance at 530 nm. Three independent experiments were conducted. Experiment 1 and 2 each contained 2 technical replicates, while experiment 3 included 3 technical replicates.
# [2] = system: AHAS, enzyme extract of SRS 934; details: for Absorbance at 530 nm (AHAS product feedback inhibition assay, raw data), Avg: average of replicates per experiment; for Absorbance at 530 nm (AHAS product feedback inhibition assay, raw data): individual replicates, experiments 1-3
# Experimental: as §1, §2, §3
# [3] = system: AHAS, enzyme extract of 14CS0851-01-14; details: for Absorbance at 530 nm (AHAS product feedback inhibition assay, raw data), Avg: average of replicates per experiment; for Absorbance at 530 nm (AHAS product feedback inhibition assay, raw data): individual replicates, experiments 1-3; for sensitivity of AHAS to feedback inhibition, comparison of enzyme extracts: extracts of 14CS0851-01-14, SRS 934 and MIDAS™ compared, 1 mM, 10 mM, 100 mM
# Experimental: as §1, §2, §3
# [4] = 1 mM amino acid final concentration
# [5] = 10 mM amino acid final concentration
# [6] = 100 mM amino acid final concentration
smiles,measurement,setting,value
CC[C@H](C)[C@H](N)C(=O)O [isoleucine],"Absorbance at 530 nm (AHAS product feedback inhibition assay, raw data), Avg",[1]; [4],0.327 and 0.238 and 0.141
same,"Absorbance at 530 nm (AHAS product feedback inhibition assay, raw data)",[1]; [4],0.306 and 0.348 and 0.271 and 0.204 and 0.136 and 0.138 and 0.149
same,"Absorbance at 530 nm (AHAS product feedback inhibition assay, raw data), Avg",[1]; [5],0.2675 and 0.192
same,"Absorbance at 530 nm (AHAS product feedback inhibition assay, raw data)",[1]; [5],0.275 and 0.208 and 0.176 and 0.100 and 0.107 and 0.102
same,"Absorbance at 530 nm (AHAS product feedback inhibition assay, raw data), Avg",[1]; [6],0.195 and 0.077
same,"Absorbance at 530 nm (AHAS product feedback inhibition assay, raw data)",[1]; [6],0.194 and 0.176 and 0.149 and 0.080 and 0.075 and 0.078
same,"Absorbance at 530 nm (AHAS product feedback inhibition assay, raw data), Avg",[2]; [4],0.2535 and 0.224 and 0.115
same,"Absorbance at 530 nm (AHAS product feedback inhibition assay, raw data)",[2]; [4],0.251 and 0.256 and 0.245 and 0.203 and 0.120 and 0.111 and 0.114
same,"Absorbance at 530 nm (AHAS product feedback inhibition assay, raw data), Avg",[2]; [5],0.234 and 0.187 and 0.093
same,"Absorbance at 530 nm (AHAS product feedback inhibition assay, raw data)",[2]; [5],0.233 and 0.235 and 0.219 and 0.154 and 0.091 and 0.089 and 0.100
same,"Absorbance at 530 nm (AHAS product feedback inhibition assay, raw data), Avg",[2]; [6],0.186 and 0.156 and 0.069
same,"Absorbance at 530 nm (AHAS product feedback inhibition assay, raw data)",[2]; [6],0.196 and 0.176 and 0.177 and 0.134 and 0.065 and 0.069 and 0.073
same,"Absorbance at 530 nm (AHAS product feedback inhibition assay, raw data), Avg",[3]; [4],0.296 and 0.229 and 0.105
same,"Absorbance at 530 nm (AHAS product feedback inhibition assay, raw data)",[3]; [4],0.305 and 0.287 and 0.238 and 0.220 and 0.106 and 0.104
same,"Absorbance at 530 nm (AHAS product feedback inhibition assay, raw data), Avg",[3]; [5],0.209 and 0.186 and 0.088
same,"Absorbance at 530 nm (AHAS product feedback inhibition assay, raw data)",[3]; [5],0.217 and 0.201 and 0.200 and 0.171 and 0.087 and 0.082 and 0.094
same,"Absorbance at 530 nm (AHAS product feedback inhibition assay, raw data), Avg",[3]; [6],0.182 and 0.145 and 0.061
same,"Absorbance at 530 nm (AHAS product feedback inhibition assay, raw data)",[3]; [6],0.188 and 0.176 and 0.70 and 0.120 and 0.061 and 0.072 and 0.052
same,"sensitivity of AHAS to feedback inhibition, comparison of enzyme extracts",[3],no significant difference
CC(C)C[C@H](N)C(=O)O [leucine],"Absorbance at 530 nm (AHAS product feedback inhibition assay, raw data), Avg",[1]; [4],0.2245 and 0.180 and 0.106
same,"Absorbance at 530 nm (AHAS product feedback inhibition assay, raw data)",[1]; [4],0.215 and 0.234 and 0.198 and 0.162 and 0.102 and 0.105 and 0.112
same,"Absorbance at 530 nm (AHAS product feedback inhibition assay, raw data), Avg",[1]; [5],0.1775 and 0.166 and 0.093
same,"Absorbance at 530 nm (AHAS product feedback inhibition assay, raw data)",[1]; [5],0.178 and 0.177 and 0.181 and 0.150 and 0.096 (2×) and 0.088
same,"Absorbance at 530 nm (AHAS product feedback inhibition assay, raw data), Avg",[1]; [6],0.148 and 0.152 and 0.090
same,"Absorbance at 530 nm (AHAS product feedback inhibition assay, raw data)",[1]; [6],0.142 and 0.154 and 0.153 and 0.150 and 0.078 and 0.096 (2×)
same,"Absorbance at 530 nm (AHAS product feedback inhibition assay, raw data), Avg",[2]; [4],0.204 and 0.192 and 0.089
same,"Absorbance at 530 nm (AHAS product feedback inhibition assay, raw data)",[2]; [4],0.2 and 0.208 and 0.225 and 0.158 and 0.097 and 0.085 and 0.086
same,"Absorbance at 530 nm (AHAS product feedback inhibition assay, raw data), Avg",[2]; [5],0.1785 and 0.162 and 0.085
same,"Absorbance at 530 nm (AHAS product feedback inhibition assay, raw data)",[2]; [5],0.17 and 0.187 and 0.163 and 0.140 and 0.092 and 0.091 and 0.071
same,"Absorbance at 530 nm (AHAS product feedback inhibition assay, raw data), Avg",[2]; [6],0.1475 and 0.136 and 0.080
same,"Absorbance at 530 nm (AHAS product feedback inhibition assay, raw data)",[2]; [6],0.154 and 0.141 and 0.167 and 0.104 and 0.084 and 0.068 and 0.089
same,"Absorbance at 530 nm (AHAS product feedback inhibition assay, raw data), Avg",[3]; [4],0.204 and 0.149 and 0.094
same,"Absorbance at 530 nm (AHAS product feedback inhibition assay, raw data)",[3]; [4],0.214 and 0.194 and 0.162 and 0.136 and 0.079 and 0.099 and 0.105
same,"Absorbance at 530 nm (AHAS product feedback inhibition assay, raw data), Avg",[3]; [5],0.174 and 0.136 and 0.064
same,"Absorbance at 530 nm (AHAS product feedback inhibition assay, raw data)",[3]; [5],0.183 and 0.165 and 0.151 and 0.120 and 0.066 and 0.061 and 0.067
same,"Absorbance at 530 nm (AHAS product feedback inhibition assay, raw data), Avg",[3]; [6],0.122 and 0.056
same,"Absorbance at 530 nm (AHAS product feedback inhibition assay, raw data)",[3]; [6],0.146 and 0.14 and 0.138 and 0.105 and 0.051 and 0.060 and 0.057
same,"sensitivity of AHAS to feedback inhibition, comparison of enzyme extracts",[3],no significant difference
CC(C)[C@H](N)C(=O)O [valine],"Absorbance at 530 nm (AHAS product feedback inhibition assay, raw data), Avg",[1]; [4],0.2475 and 0.203 and 0.117
same,"Absorbance at 530 nm (AHAS product feedback inhibition assay, raw data)",[1]; [4],0.252 and 0.243 and 0.239 and 0.166 and 0.115 and 0.116 and 0.122
same,"Absorbance at 530 nm (AHAS product feedback inhibition assay, raw data), Avg",[1]; [5],0.214 and 0.191 and 0.112
same,"Absorbance at 530 nm (AHAS product feedback inhibition assay, raw data)",[1]; [5],0.205 and 0.223 and 0.217 and 0.113 and 0.110 and 0.112
same,"Absorbance at 530 nm (AHAS product feedback inhibition assay, raw data), Avg",[1]; [6],0.1815 and 0.166 and 0.089
same,"Absorbance at 530 nm (AHAS product feedback inhibition assay, raw data)",[1]; [6],0.174 and 0.189 and 0.171 and 0.161 and 0.084 and 0.091 and 0.092
same,"Absorbance at 530 nm (AHAS product feedback inhibition assay, raw data), Avg",[2]; [4],0.231 and 0.181 and 0.094
same,"Absorbance at 530 nm (AHAS product feedback inhibition assay, raw data)",[2]; [4],0.236 and 0.226 and 0.198 and 0.163 and 0.086 and 0.098 and 0.100
same,"Absorbance at 530 nm (AHAS product feedback inhibition assay, raw data), Avg",[2]; [5],0.184 and 0.179 and 0.093
same,"Absorbance at 530 nm (AHAS product feedback inhibition assay, raw data)",[2]; [5],0.186 and 0.182 and 0.206 and 0.151 and 0.091 (2×) and 0.096
same,"Absorbance at 530 nm (AHAS product feedback inhibition assay, raw data), Avg",[2]; [6],0.1625 and 0.142 and 0.070
same,"Absorbance at 530 nm (AHAS product feedback inhibition assay, raw data)",[2]; [6],0.168 and 0.157 and 0.184 and 0.100 and 0.071 and 0.072 and 0.067
same,"Absorbance at 530 nm (AHAS product feedback inhibition assay, raw data), Avg",[3]; [4],0.213 and 0.207 and 0.080
same,"Absorbance at 530 nm (AHAS product feedback inhibition assay, raw data)",[3]; [4],0.216 and 0.21 and 0.227 and 0.187 and 0.079 and 0.080 and 0.082
same,"Absorbance at 530 nm (AHAS product feedback inhibition assay, raw data), Avg",[3]; [5],0.196 and 0.178 and 0.073
same,"Absorbance at 530 nm (AHAS product feedback inhibition assay, raw data)",[3]; [5],0.203 and 0.189 and 0.190 and 0.166 and 0.057 and 0.84 and 0.80
same,"Absorbance at 530 nm (AHAS product feedback inhibition assay, raw data), Avg",[3]; [6],0.1485 and 0.155 and 0.057
same,"Absorbance at 530 nm (AHAS product feedback inhibition assay, raw data)",[3]; [6],0.155 and 0.142 and 0.176 and 0.133 and 0.054 and 0.061 and 0.056
same,"sensitivity of AHAS to feedback inhibition, comparison of enzyme extracts",[3],no significant difference

# Reference: patent publication US20220073941A1, “HERBICIDE-RESISTANT CAMELINA SATIVA PLANTS, AND VARIANT CAMELINA ACETOHYDROXYACID SYNTHASE POLYPEPTIDES” (priority 2019, published 2022)
